Experiment: Saturated solubility testing in butanone and ethanol
Assay type: physicochemical
Conditions: solvent butanone

SMILES | Solubility (w/w) in butanone
CCC(C)(C)c1cc2c(c([N+](=O)[O-])c1)[O][Fe]1([O]c3ccc4ccccc4c3/N=N/2)[O]c2ccc3ccccc3c2/N=N/c2cc(C(C)(C)CC)cc([N+](=O)[O-])c2[O]1 [Example 60] | ≥20% (w/w)
O=[N+]([O-])c1ccc2c(c1)[O][Fe]1([O]c3cc([N+](=O)[O-])ccc3/N=N/c3c(ccc4ccccc34)[O]1)[O]c1ccc3ccccc3c1/N=N/2 [Example 29] | 50% (w/w)
O=[N+]([O-])c1ccc2c(c1)/N=N/c1c(ccc3ccccc13)[O][Fe]1([O]2)[O]c2ccc([N+](=O)[O-])cc2/N=N/c2c(ccc3ccccc23)[O]1 [Example 59] | 6% (w/w)

Same assay, conditions: solvent ethanol

SMILES | Solubility (w/w) in ethanol
CCC(C)(C)c1cc2c(c([N+](=O)[O-])c1)[O][Fe]1([O]c3ccc4ccccc4c3/N=N/2)[O]c2ccc3ccccc3c2/N=N/c2cc(C(C)(C)CC)cc([N+](=O)[O-])c2[O]1 [Example 60] | <2% (w/w)
O=[N+]([O-])c1ccc2c(c1)[O][Fe]1([O]c3cc([N+](=O)[O-])ccc3/N=N/c3c(ccc4ccccc34)[O]1)[O]c1ccc3ccccc3c1/N=N/2 [Example 29] | <1% (w/w)
O=[N+]([O-])c1ccc2c(c1)/N=N/c1c(ccc3ccccc13)[O][Fe]1([O]2)[O]c2ccc([N+](=O)[O-])cc2/N=N/c2c(ccc3ccccc23)[O]1 [Example 59] | <1% (w/w)

From US20240199881A1, “METAL COMPLEX DYES FOR INKJET PRINTING” (Videojet Technologies Inc., priority 2021, published 2024)
